Seven compounds from BindingDB's records for patent WO2022098809 (Merck Sharp &Amp, 2022) can be followed below.

SMILES strings stand for the structures.

For this test, the target named is Mitogen-activated protein kinase kinase kinase kinase 1 (Homo sapiens, UniProt Q92918). As to the kind of experiment: HPK1-SLP76 TR-FRET ASSAY. As to the method: Compounds are serially diluted (3-fold in 100% DMSO) across a 384-well polypropylene source plated from column 3 to column 12 and column 13 to column 22, to yield 10 concentration dose responses for each test compound. Columns 1, 2, 23 and 24 contain either only DMSO or a pharmacological known control inhibitor. […] Enzyme, Substrate and Stop/Detection solutions are prepared in assay buffer. […] Kinase reaction is initiated with addition of 2.5 μL of substrate solution (ATP 10uM and SLP7610 nM Final) and allowed to proceed for 60 minutes. […] Plates are incubated at room temperature for 30 minutes. Reactions are initiated by addition of 2.5 μL of 3x substrate solution (10 nM SLP76 and 10 uM ATP FInal) using BioRaptr. Plates are incubated at room temperature for one hour.
Mitogen-activated protein kinase kinase kinase kinase 1, sequence (Q92918 whole entry): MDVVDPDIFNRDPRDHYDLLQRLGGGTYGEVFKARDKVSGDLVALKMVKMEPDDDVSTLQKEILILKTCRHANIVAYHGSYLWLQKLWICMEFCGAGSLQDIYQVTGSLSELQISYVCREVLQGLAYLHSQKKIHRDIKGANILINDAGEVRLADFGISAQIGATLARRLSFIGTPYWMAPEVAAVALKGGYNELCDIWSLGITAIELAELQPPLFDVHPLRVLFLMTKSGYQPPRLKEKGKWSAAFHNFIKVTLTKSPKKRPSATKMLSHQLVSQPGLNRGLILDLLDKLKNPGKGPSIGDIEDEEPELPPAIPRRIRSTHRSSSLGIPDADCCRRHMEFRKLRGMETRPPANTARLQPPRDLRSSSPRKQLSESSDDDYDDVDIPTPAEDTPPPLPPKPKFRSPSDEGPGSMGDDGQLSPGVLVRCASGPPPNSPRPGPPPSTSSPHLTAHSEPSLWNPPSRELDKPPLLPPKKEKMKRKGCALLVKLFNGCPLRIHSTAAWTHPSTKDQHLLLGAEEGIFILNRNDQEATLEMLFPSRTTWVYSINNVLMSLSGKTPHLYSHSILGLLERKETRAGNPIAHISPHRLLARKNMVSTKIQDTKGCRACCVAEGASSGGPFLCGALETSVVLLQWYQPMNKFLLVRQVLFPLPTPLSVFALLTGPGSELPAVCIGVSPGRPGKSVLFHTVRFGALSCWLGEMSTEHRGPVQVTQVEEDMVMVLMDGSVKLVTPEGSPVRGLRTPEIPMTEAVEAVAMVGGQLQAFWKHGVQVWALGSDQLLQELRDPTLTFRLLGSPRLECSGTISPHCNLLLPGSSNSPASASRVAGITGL
As usually defined, the IC50 is the concentration that gives 50% inhibition. Consider `COc1cc2c(cc1Nc1ncc(C(N)=O)c(Nc3ccc(C)cc3C3CC3)n1)CN(C)CC2` [WO2022098809, Example 4-26], for which the IC50 came out at 0.17 nM. `CCc1cc(C)ccc1Nc1nc(Nc2cc3c(cc2OC)CCN(C)C3)ncc1C(N)=O` [WO2022098809, Example 4-27]: the half-inhibitory concentration (IC50) is 0.08 nM. This IC50 is about 2.1-fold lower than that of the compound before. Regarding `COc1cc2c(cc1Nc1ncc(C(N)=O)c(Nc3ccc(C)cc3C(C)(C)C)n1)CN(C)CC2` [WO2022098809, Example 4-28], the IC50 was 0.26 nM. Take `Cc1cc(F)c(Nc2nc(Nc3cc4c(cc3F)CCN(C)C4)ncc2C(N)=O)c(C(F)(F)F)c1` [WO2022098809, Example 4-29]: the IC50 was found to be 0.2 nM. With `COc1cc2c(cc1Nc1ncc(C(N)=O)c(Nc3c(F)cccc3CC(F)F)n1)CN(C)CC2` [WO2022098809, Example 4-31], the IC50 worked out at 0.2 nM. This lies in the sub-nanomolar range. Turning to `CN1CCc2cc(F)c(Nc3ncc(C(N)=O)c(Nc4c(F)ccc5c4OC(C)(C)C5)n3)cc2C1` [WO2022098809, Example 4-32], 1.13 nM corresponded to half-maximal inhibition (IC50). On to `Cc1cccc(F)c1Nc1nc(Nc2c(C)nn(C)c2C)ncc1C(N)=O` [WO2022098809, Example 4-35], for which the IC50 was determined as 158 nM. Against the preceding compound, the IC50 is about 140-fold higher.
